Article PMC5218480 (PLoS ONE, 2017)

Test system: MV-4-11 cells
Test: Gene expression microarray analysis (Affymetrix PrimeView) and GSEA
Format: cell-based, human
Design: RFU PODN (11730768_x_at) / Fold change /veh PODN (11730768_x_at) / RFU LINC00158 (11744669_a_at) / Fold change /veh LINC00158 (11744669_a_at) / RFU DUSP10 (11751237_a_at) / Fold change /veh DUSP10 (11751237_a_at) / RFU ID3 (11757404_x_at) / Fold change /veh ID3 (11757404_x_at) / RFU PLEKHG5 (11737974_s_at) / Fold change /veh PLEKHG5 (11737974_s_at) / RFU LRRC4B (11730491_at) / Fold change /veh LRRC4B (11730491_at) / RFU GIMAP4 (11747438_a_at) / Fold change /veh GIMAP4 (11747438_a_at) / RFU KRT8 (11758183_x_at) / Fold change /veh KRT8 (11758183_x_at) / RFU CNN1 (11734310_a_at) / Fold change /veh CNN1 (11734310_a_at) / RFU VPS37D (11726825_at) / Fold change /veh VPS37D (11726825_at) / RFU C10orf10 (11716522_x_at) / Fold change /veh C10orf10 (11716522_x_at) / RFU KIR2DL2 /// KIR2DL4 /// KIR2DL5A /// KIR2DL5B /// KIR2DS1 /// KIR2DS2 /// KIR2DS3 /// KIR2DS4 /// KIR3DL3 /// KIR3DL3 /// KIR3DS1 (11738374_at) / Fold change /veh KIR2DL2 /// KIR2DL4 /// KIR2DL5A /// KIR2DL5B /// KIR2DS1 /// KIR2DS2 /// KIR2DS3 /// KIR2DS4 /// KIR3DL3 /// KIR3DL3 /// KIR3DS1 (11738374_at) / RFU C1QL1 (11718748_at) / Fold change /veh C1QL1 (11718748_at) / RFU TMPRSS4 (11747572_a_at) / Fold change /veh TMPRSS4 (11747572_a_at) / RFU HAMP (11756126_x_at) / Fold change /veh HAMP (11756126_x_at) / RFU RNFT2 (11725882_a_at) / Fold change /veh RNFT2 (11725882_a_at) / RFU NR4A2 (11747474_a_at) / Fold change /veh NR4A2 (11747474_a_at) / RFU ABCC12 (11746883_a_at) / Fold change /veh ABCC12 (11746883_a_at) / RFU TMEM136 (11760407_x_at) / Fold change /veh TMEM136 (11760407_x_at) / RFU CLDN22 /// WWC2 (11732394_at) / Fold change /veh CLDN22 /// WWC2 (11732394_at) / RFU HLA-DPB1 (11760878_x_at) / Fold change /veh HLA-DPB1 (11760878_x_at) / RFU SPINT1 (11716480_a_at) / Fold change /veh SPINT1 (11716480_a_at) / RFU GAP43 (11754022_s_at) / Fold change /veh GAP43 (11754022_s_at) / RFU A4GNT (11735810_at) / Fold change /veh A4GNT (11735810_at) / RFU PRB3 (11715151_x_at) / Fold change /veh PRB3 (11715151_x_at) / RFU TUBB4B (11761932_at) / Fold change /veh TUBB4B (11761932_at) / RFU CAPN14 (11732068_a_at) / Fold change /veh CAPN14 (11732068_a_at) / RFU TMCC2 (11721928_a_at) / Fold change /veh TMCC2 (11721928_a_at) / RFU IRGQ (11745062_a_at) / Fold change /veh IRGQ (11745062_a_at) / RFU FAM174B (11720279_a_at) / Fold change /veh FAM174B (11720279_a_at) / RFU TMPRSS4 (11748680_a_at) / Fold change /veh TMPRSS4 (11748680_a_at) / RFU FAM212B (11763350_a_at) / Fold change /veh FAM212B (11763350_a_at) / RFU PLEKHG5 (11743358_a_at) / Fold change /veh PLEKHG5 (11743358_a_at) / RFU ZSCAN30 (11745921_a_at) / Fold change /veh ZSCAN30 (11745921_a_at) / RFU CMKLR1 (11741424_a_at) / Fold change /veh CMKLR1 (11741424_a_at) / RFU LOC101060620 /// MAPK8IP1 (11723275_at) / Fold change /veh LOC101060620 /// MAPK8IP1 (11723275_at) / RFU SPTSSB (11747773_x_at) / Fold change /veh SPTSSB (11747773_x_at) / RFU PRSS12 (11739890_at) / Fold change /veh PRSS12 (11739890_at) / RFU BIN1 (11741810_x_at) / Fold change /veh BIN1 (11741810_x_at) / RFU WNT11 (11732464_a_at) / Fold change /veh WNT11 (11732464_a_at) / RFU C10orf10 (11716521_a_at) / Fold change /veh C10orf10 (11716521_a_at) / RFU C5orf56 (11738089_at) / Fold change /veh C5orf56 (11738089_at) / RFU CYB561 (11721691_x_at) / Fold change /veh CYB561 (11721691_x_at) / RFU ANKRD19P (11752326_a_at) / Fold change /veh ANKRD19P (11752326_a_at) / RFU OR2T12 /// OR2T33 /// OR2T8 (11738714_s_at) / Fold change /veh OR2T12 /// OR2T33 /// OR2T8 (11738714_s_at) / RFU VCAN (11748164_a_at) / Fold change /veh VCAN (11748164_a_at) / RFU JSRP1 (11732532_at) / Fold change /veh JSRP1 (11732532_at) / RFU KRTAP10-11 (11738290_x_at) / Fold change /veh KRTAP10-11 (11738290_x_at) / RFU MYO3A (11730013_a_at) / Fold change /veh MYO3A (11730013_a_at) / RFU EBF3 (11725865_a_at) / Fold change /veh EBF3 (11725865_a_at) / RFU CAMK2N1 (11719241_x_at) / Fold change /veh CAMK2N1 (11719241_x_at) / RFU C5orf56 (11738088_a_at) / Fold change /veh C5orf56 (11738088_a_at) / RFU OLFML3 (11715873_a_at) / Fold change /veh OLFML3 (11715873_a_at) / RFU LOC100653217 /// NTM (11731650_a_at) / Fold change /veh LOC100653217 /// NTM (11731650_a_at) / RFU MAPK11 (11762145_a_at) / Fold change /veh MAPK11 (11762145_a_at) / RFU FIZ1 (11724087_x_at) / Fold change /veh FIZ1 (11724087_x_at) / RFU OASL (11726364_x_at) / Fold change /veh OASL (11726364_x_at) / RFU SOX15 (11748057_x_at) / Fold change /veh SOX15 (11748057_x_at) / RFU CD79A (11719716_a_at) / Fold change /veh CD79A (11719716_a_at) / RFU HIST1H1D (11736915_at) / Fold change /veh HIST1H1D (11736915_at) / RFU CASKIN2 (11723855_a_at) / Fold change /veh CASKIN2 (11723855_a_at) / RFU LOC730098 (11760151_x_at) / Fold change /veh LOC730098 (11760151_x_at) / RFU OR4N2 (11742367_at) / Fold change /veh OR4N2 (11742367_at) / RFU PRRT2 (11749266_a_at) / Fold change /veh PRRT2 (11749266_a_at) / RFU SNX32 (11753110_a_at) / Fold change /veh SNX32 (11753110_a_at) / RFU CDHR5 (11726645_a_at) / Fold change /veh CDHR5 (11726645_a_at) / RFU RCAN1 (11760418_a_at) / Fold change /veh RCAN1 (11760418_a_at) / RFU FAM167A (11723789_a_at) / Fold change /veh FAM167A (11723789_a_at) / RFU FAM26E (11764081_at) / Fold change /veh FAM26E (11764081_at) / RFU ISYNA1 (11749810_s_at) / Fold change /veh ISYNA1 (11749810_s_at) / RFU ACY1 (11761880_at) / Fold change /veh ACY1 (11761880_at) / RFU 11764098_at / Fold change /veh 11764098_at / RFU SAMD14 (11745864_x_at) / Fold change /veh SAMD14 (11745864_x_at) / RFU NPB (11741838_a_at) / Fold change /veh NPB (11741838_a_at) / RFU TMPRSS6 (11731388_a_at) / Fold change /veh TMPRSS6 (11731388_a_at) / RFU KRTAP10-2 (11738614_at) / Fold change /veh KRTAP10-2 (11738614_at) / RFU ARHGAP8 /// PRR5-ARHGAP8 (11727945_x_at) / Fold change /veh ARHGAP8 /// PRR5-ARHGAP8 (11727945_x_at) / RFU KRTAP5-7 /// NADSYN1 (11734609_at) / Fold change /veh KRTAP5-7 /// NADSYN1 (11734609_at) / RFU RASL12 (11751679_a_at) / Fold change /veh RASL12 (11751679_a_at) / RFU CDKN2B (11736163_a_at) / Fold change /veh CDKN2B (11736163_a_at) / RFU PRF1 (11729649_at) / Fold change /veh PRF1 (11729649_at) / RFU, ZNF638 /// ZNF638-IT1 / Fold change vs veh, ZNF638 /// ZNF638-IT1 / RFU, PANK3 / Fold change vs veh, PANK3 / RFU, SH3YL1 / Fold change vs veh, SH3YL1 / RFU, ZEB2 / Fold change vs veh, ZEB2 / RFU, NRIP1 / Fold change vs veh, NRIP1 / RFU, PTTG1IP / Fold change vs veh, PTTG1IP / RFU, CAPN2 / Fold change vs veh, CAPN2 / RFU, MED14 / Fold change vs veh, MED14 / RFU, SNORA58 / Fold change vs veh, SNORA58 / RFU, C1orf63 / Fold change vs veh, C1orf63 / RFU, LRRFIP1 / Fold change vs veh, LRRFIP1 / RFU, NDUFAF7 / Fold change vs veh, NDUFAF7 / RFU, SLC12A2 / Fold change vs veh, SLC12A2 / RFU, IBTK / Fold change vs veh, IBTK / RFU, ESF1 / Fold change vs veh, ESF1 / Fold change vs veh, TMEM50B / RFU, TAOK1 / Fold change vs veh, TAOK1 / RFU, ACBD3 / Fold change vs veh, ACBD3 / RFU, TMA16 / Fold change vs veh, TMA16 / RFU, RWDD3 / Fold change vs veh, RWDD3 / RFU, BCAT1 / Fold change vs veh, BCAT1 / RFU, EDEM3 / Fold change vs veh, EDEM3 / RFU, TMEM33 / Fold change vs veh, TMEM33 / RFU, WDR75 / Fold change vs veh, WDR75 / RFU, AHCTF1 / Fold change vs veh, AHCTF1 / RFU, TFRC / Fold change vs veh, TFRC / RFU, ZDHHC17 / Fold change vs veh, ZDHHC17 / RFU, NOM1 / Fold change vs veh, NOM1 / RFU, ARL8B / Fold change vs veh, ARL8B / RFU, ZBTB11 / Fold change vs veh, ZBTB11 / RFU, TAMM41 / Fold change vs veh, TAMM41 / RFU, KIAA1704 /// LOC100996395 / Fold change vs veh, KIAA1704 /// LOC100996395 / RFU, ING1 / Fold change vs veh, ING1 / RFU, TRMT61B / Fold change vs veh, TRMT61B / RFU, FUBP3 / Fold change vs veh, FUBP3 / RFU, TP53 / Fold change vs veh, TP53 / RFU, TNKS2 / Fold change vs veh, TNKS2 / RFU, ZFP14 / Fold change vs veh, ZFP14 / RFU, ACTR2 / Fold change vs veh, ACTR2 / RFU, PPP3R1 / Fold change vs veh, PPP3R1 / RFU, PIK3R1 / Fold change vs veh, PIK3R1 / RFU, HNRNPA1 / Fold change vs veh, HNRNPA1 / RFU, RNF170 / Fold change vs veh, RNF170 / RFU, ZNF28 / Fold change vs veh, ZNF28 / RFU, RNGTT / Fold change vs veh, RNGTT / RFU, OGT / Fold change vs veh, OGT / RFU, BRD1 / Fold change vs veh, BRD1 / RFU, MARS / Fold change vs veh, MARS / RFU, ZNF655 / Fold change vs veh, ZNF655 / RFU, FAHD1 / Fold change vs veh, FAHD1 / RFU, BDP1 / Fold change vs veh, BDP1 / RFU, LRRCC1 / Fold change vs veh, LRRCC1 / RFU, ARID1A / Fold change vs veh, ARID1A / RFU, ZNF146 / Fold change vs veh, ZNF146 / RFU, ZNF330 / Fold change vs veh, ZNF330 / RFU, GPN3 / Fold change vs veh, GPN3 / RFU, C9orf123 / Fold change vs veh, C9orf123 / RFU, N4BP2L2 / Fold change vs veh, N4BP2L2 / RFU, ARFIP1 / Fold change vs veh, ARFIP1 / RFU, FAM179B / Fold change vs veh, FAM179B / RFU, BCL10 / Fold change vs veh, BCL10 / RFU, UHRF1BP1L / Fold change vs veh, UHRF1BP1L / RFU, BET1 / Fold change vs veh, BET1 / RFU, CNOT2 / Fold change vs veh, CNOT2 / RFU, ZNF268 / Fold change vs veh, ZNF268 / Fold change vs veh, ZNF507 / RFU, DGCR2 / Fold change vs veh, DGCR2 / RFU, WDSUB1 / Fold change vs veh, WDSUB1 / Fold change vs veh, HSP90B1 /// MIR3652 / RFU, ADSS / Fold change vs veh, ADSS / RFU, GK / Fold change vs veh, GK / RFU, ZNF148 / Fold change vs veh, ZNF148 / RFU, TAF9 / Fold change vs veh, TAF9 / RFU, SLC1A5 / Fold change vs veh, SLC1A5 / RFU, SLMO2 / Fold change vs veh, SLMO2 / RFU, ABCC4 / Fold change vs veh, ABCC4 / RFU, LOC101060439 /// RAP1B / Fold change vs veh, LOC101060439 /// RAP1B / RFU, RFX7 / Fold change vs veh, RFX7 / RFU, GTPBP10 / Fold change vs veh, GTPBP10 / RFU, CNEP1R1 / Fold change vs veh, CNEP1R1 / RFU, BIVM-ERCC5 /// ERCC5 / Fold change vs veh, BIVM-ERCC5 /// ERCC5 / RFU, ILF3 / Fold change vs veh, ILF3 / RFU 11762660_at / Fold change /veh 11762660_at / RFU VCAN (11757783_s_at) / Fold change /veh VCAN (11757783_s_at) / RFU DDX43 (11728927_at) / Fold change /veh DDX43 (11728927_at) / RFU KRT8 (11758188_x_at) / Fold change /veh KRT8 (11758188_x_at) / RFU NKD1 (11759106_at) / Fold change /veh NKD1 (11759106_at) / RFU SRD5A1 (11742802_a_at) / Fold change /veh SRD5A1 (11742802_a_at) / RFU TPSAB1 /// TPSB2 (11721975_s_at) / Fold change /veh TPSAB1 /// TPSB2 (11721975_s_at) / RFU GSTM3 (11746129_a_at) / Fold change /veh GSTM3 (11746129_a_at) / RFU IL23R (11737362_x_at) / Fold change /veh IL23R (11737362_x_at) / RFU TMEM51 (11727254_a_at) / Fold change /veh TMEM51 (11727254_a_at) / RFU PIWIL2 (11732686_x_at) / Fold change /veh PIWIL2 (11732686_x_at) / RFU ORM1 (11744905_x_at) / Fold change /veh ORM1 (11744905_x_at) / RFU CCDC152 (11743942_at) / Fold change /veh CCDC152 (11743942_at) / RFU ECM1 (11717891_a_at) / Fold change /veh ECM1 (11717891_a_at) / RFU IL23R (11748794_a_at) / Fold change /veh IL23R (11748794_a_at) / RFU TNFAIP8L3 (11732012_x_at) / Fold change /veh TNFAIP8L3 (11732012_x_at) / RFU MBOAT4 (11741988_at) / Fold change /veh MBOAT4 (11741988_at) / RFU 11764193_at / Fold change /veh 11764193_at / RFU TMEM53 (11763286_at) / Fold change /veh TMEM53 (11763286_at) / RFU MAGEB2 (11727129_at) / Fold change /veh MAGEB2 (11727129_at) / RFU TMEM200A (11744735_a_at) / Fold change /veh TMEM200A (11744735_a_at) / RFU CCDC152 (11751479_a_at) / Fold change /veh CCDC152 (11751479_a_at) / RFU FAM211A (11726209_a_at) / Fold change /veh FAM211A (11726209_a_at) / RFU RGS16 (11746705_a_at) / Fold change /veh RGS16 (11746705_a_at) / RFU VCAN (11755009_s_at) / Fold change /veh VCAN (11755009_s_at) / RFU RHOB (11743442_s_at) / Fold change /veh RHOB (11743442_s_at) / RFU RGS16 (11720943_a_at) / Fold change /veh RGS16 (11720943_a_at) / RFU RGS16 (11720944_at) / Fold change /veh RGS16 (11720944_at) / RFU, VPS4B / Fold change vs veh, VPS4B / RFU, CREB1 / Fold change vs veh, CREB1 / RFU, DNAJC13 / Fold change vs veh, DNAJC13 / RFU, GNAQ / Fold change vs veh, GNAQ / RFU, CDK5R1 / Fold change vs veh, CDK5R1 / RFU, ZRANB3 / Fold change vs veh, ZRANB3 / RFU, CUL4A / Fold change vs veh, CUL4A / RFU, CCNY / Fold change vs veh, CCNY / RFU, UFL1 / Fold change vs veh, UFL1 / RFU, COG3 / Fold change vs veh, COG3 / RFU, DIAPH2 / Fold change vs veh, DIAPH2 / RFU, SKA2 / Fold change vs veh, SKA2 / RFU, AFF3 / Fold change vs veh, AFF3 / RFU, LMF1 / Fold change vs veh, LMF1 / RFU, IPO11 / Fold change vs veh, IPO11 / RFU, DFFB / Fold change vs veh, DFFB / RFU, FOXP1 / Fold change vs veh, FOXP1 / RFU, CARD8 / Fold change vs veh, CARD8 / RFU, STRN3 / Fold change vs veh, STRN3 / RFU, ADK / Fold change vs veh, ADK / RFU, RASSF2 / Fold change vs veh, RASSF2 / RFU, WIPF1 / Fold change vs veh, WIPF1 / RFU, LARP1B / Fold change vs veh, LARP1B / RFU, RASA1 / Fold change vs veh, RASA1 / RFU, RB1 / Fold change vs veh, RB1 / RFU, PPFIA1 / Fold change vs veh, PPFIA1 / RFU, MAT2A / Fold change vs veh, MAT2A / RFU, CCT5 / Fold change vs veh, CCT5 / RFU, WDR92 / Fold change vs veh, WDR92 / RFU, CUX1 / Fold change vs veh, CUX1 / RFU, TTC7A / Fold change vs veh, TTC7A / RFU, TMEM135 / Fold change vs veh, TMEM135 / RFU, DEPTOR / Fold change vs veh, DEPTOR / RFU, CPM / Fold change vs veh, CPM / RFU, DNAJB6 / Fold change vs veh, DNAJB6 / RFU, CACNA2D3 / Fold change vs veh, CACNA2D3 / RFU, DTX4 / Fold change vs veh, DTX4 / RFU, TFCP2 / Fold change vs veh, TFCP2 / RFU, GMCL1 /// GMCL1P1 / Fold change vs veh, GMCL1 /// GMCL1P1 / RFU, AEBP2 / Fold change vs veh, AEBP2 / RFU, SNHG1 /// SNORD22 /// SNORD25 /// SNORD26 /// SNORD27 /// SNORD28 /// SNORD29 /// SNORD31 / Fold change vs veh, SNHG1 /// SNORD22 /// SNORD25 /// SNORD26 /// SNORD27 /// SNORD28 /// SNORD29 /// SNORD31 / Fold change (Aza/veh), C12orf56 (ProbeSet 11735607_a_at) / Fold change (ACY-1035/veh), C12orf56 (ProbeSet 11735607_a_at) / Fold change (Aza/veh), FGFR1OP (ProbeSet 11751329_s_at) / Fold change (ACY-1035/veh), FGFR1OP (ProbeSet 11751329_s_at) / Fold change (Aza/veh), VPS36 (ProbeSet 11739960_a_at) / Fold change (ACY-1035/veh), VPS36 (ProbeSet 11739960_a_at) / RFU SYPL1 (11715823_x_at) / Fold change /veh SYPL1 (11715823_x_at) / RFU IGFBP7 (11715501_s_at) / Fold change /veh IGFBP7 (11715501_s_at) / RFU REEP3 (11722064_at) / Fold change /veh REEP3 (11722064_at) / RFU IGLL1 (11728026_x_at) / Fold change /veh IGLL1 (11728026_x_at): dose or concentration left out as unconfirmed
Details: ProbeSet 11725217_a_at; LIST B

Nc1ncn([C@@H]2O[C@H](CO)[C@@H](O)[C@H]2O)c(=O)n1 [azacitidine]
RFU, WDSUB1: 50.65 RFU
